In article PMC6158327, “Negative Allosteric Modulators of mGlu7 Receptor as Putative Antipsychotic Drugs” (Frontiers in Molecular Neuroscience, 2018):

Assays:
Cytochrome P450 2B6 = target: T1, Cytochrome P450 2B6 (Homo sapiens, UniProt P20813); test: Cytochrome P450 inhibition, 2B6; assay type: in vitro ADME
T1 sequence (P20813 1-491): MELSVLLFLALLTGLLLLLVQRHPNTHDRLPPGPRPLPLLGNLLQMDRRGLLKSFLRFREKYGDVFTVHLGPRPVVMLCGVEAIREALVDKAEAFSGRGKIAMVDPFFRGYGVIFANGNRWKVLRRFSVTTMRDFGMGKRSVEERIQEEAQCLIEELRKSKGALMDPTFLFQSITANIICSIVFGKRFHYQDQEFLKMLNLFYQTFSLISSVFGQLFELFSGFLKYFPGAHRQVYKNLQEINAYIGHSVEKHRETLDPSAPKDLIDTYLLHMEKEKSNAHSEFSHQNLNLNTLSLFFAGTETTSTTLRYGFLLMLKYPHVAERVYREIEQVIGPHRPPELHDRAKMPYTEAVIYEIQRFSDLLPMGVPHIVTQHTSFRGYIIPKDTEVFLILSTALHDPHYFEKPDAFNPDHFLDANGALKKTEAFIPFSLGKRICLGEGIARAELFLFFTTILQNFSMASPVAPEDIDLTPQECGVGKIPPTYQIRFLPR

[1] = Metabolic stability (microsomes, mice); assay type: in vitro ADME; conditions: for microsomal CLint: mouse, liver microsomes
mGlu7 receptor [2] = target: T2, mGlu7 receptor (Homo sapiens, UniProt Q14831); test: HTRF cAMP assay: antagonism of L-Glu (EC80) inhibition of forskolin-stimulated cAMP accumulation (NAM profile); assay type: cell-based; conditions: HEK 293 T-REx cells expressing mGlu7; 6.26 mM L-Glu (EC80); 5 μM forskolin; n = 3; read-out: IC50, antagonism of L-Glu inhibition of cAMP accumulation in the presence of forskolin
T2 construct: expressed in transfected cells
Description: (§1) A homogeneous time-resolved fluorescence (HTRF) cAMP dynamic 2 (Cisbio, Codolet, France) assay was performed as previously described ([Chruścicka et al., 2015]) with recombinant cell lines. Briefly, HEK 293 T-REx cells stably expressing mGlu7 receptor, were collected and suspended in Hanks-HEPES buffer. The cell suspension was added to compounds solution with 5 μM of forskolin (final concentration). After 5 min incubation in 37°C, 5 μl of cAMP-d2 conjugate in lysis buffer was added and mixed with the 10 μl cell suspension by means of an automated pipetting system (Tecan Evo 200, Tecan, Mannedorf, Switzerland). Next, 5 μl anti-cAMP cryptate conjugate was added and the fluorescence at 620 and 665 nm was read after 1 h (Tecan Infinite M1000). The results are shown as the 665 nm/620 nm ratio multiplied by 10^4. The detected signal was inversely proportional to the concentration of cAMP in the sample. […] Each experiment was performed three times (n = 3), and each data point was in triplicate.

[3] = tested on: MK-801-induced social interaction deficits; test: Social interaction test (MK-801-induced deficits); assay type: in vivo, Albino Swiss mice; conditions: 30 min before MK-801 (0.3 mg/kg), mice
Description: The method was adapted from [de Moura Linck et al., 2008] and [Woźniak et al., 2016b]. After the 2-day habituation trial (10 min/day) a pair of mice was placed in the open field for 5 min. The social interactions between two mice were determined based on the total time spent participating in social behavior such as genital investigation, sniffing, chasing, and fighting each other. The total number of social episodes was also measured. The test was video-recorded and viewed by a trained observer.

mGlu7 receptor [4] = target: T2, mGlu7 receptor; test: HTRF cAMP assay: potentiation of forskolin action without agonist (inverse agonist properties); assay type: cell-based; conditions: T-REx 293 cells, 5 μM forskolin, n = 3, read-out: IC50, potentiation of forskolin action (elevating cAMP concentration), inverse agonist properties
Description: as §1
Both compounds dose-dependently potentiated forskolin action, elevating cAMP concentration in the T-REx 293 cells (Figure 2B). […] This effect was not observed for an antagonist of mGluR7 – XAP044.

Cytochrome P450 2D6 = Cytochrome P450 2D6 (Homo sapiens, UniProt P10635); test: Cytochrome P450 inhibition, 2D6; assay type: in vitro ADME
[5] = Pharmacokinetic study, brain concentration after i.p. injection; assay type: in vivo, mouse (Albino Swiss); conditions: mouse; for AUC / Cmax / Tmax / half-life: Albino Swiss, ip, brain, 10 mg/kg i.p.
Description: The mice were then perfused with 0.1M PBS to remove remaining blood from the body, and the brains were taken out for the analysis. Blood was centrifuged at 2000 rpm for 10 min at 4°C, and the plasma was collected and frozen at -80°C for further analysis.
Plasma and tissue samples from all drug-treated animals were thawed at room temperature prior to use. Standard protocol of sample preparation: 200 μl acetonitrile was added to the eppendorfs with 50 μl of studied plasma samples or tissue homogenate. Samples were mixed for 5 min on a mixer at 25°C and 1400 rpm. Tubes were then centrifuged at 2000 × g for 15 min at 4°C. About 180 μl of each supernatant was transferred into a plate well. Finally, each sample was injected into the column.
In calibration curve – serial dilution method, plasma was spiked with standard at different concentration levels. Acetonitrile was added. Mixed, centrifuged supernatant was taken.
Plasma and tissue samples from all drug-treated animals at selected time points are analyzed using previously developed a non-validated liquid chromatography-tandem mass spectrometry (LC-MS)/MS method.
LC/MS analysis was carried on a Bruker amaZon SL mass spectrometer using positive/ negative ion ESI mode. Chromatographic separation was achieved on a Ascentis Express C18 column, (5 cm × 2.1 mm, […], Supelco Technologies) at room temperature with a thermostatted column oven. A gradient elution of eluents A [acetonitrile (LiChrosolv, Reag. Ph Eur) +0.1% formic acid (Sigma–Aldrich, 98–100%)] and B (water +0.1% formic acid) was used for separation. The flow rate was set at 1 ml/min. The injection volume was 20 μl, and the time of injection was 4 min.
An Ion trap mass spectrometer (Bruker amaZon SL) was equipped with an electrospray source, operating in the positive/negative ion mode. Data were collected and processes using Bruker Quant Analysis software. Quantification of analytes was performed in SIM mode.

[6] = tested on: DOI-induced head twitches; test: DOI-induced head twitches; assay type: in vivo, Albino Swiss mice; conditions: mice; for Effect on DOI-induced head twitches, acute: 30 min before DOI (2.5 mg/kg)
Description: The experiment was performed according to previously described procedure ([Wierońska et al., 2012], [2013]). Immediately after a 30 min acclimatization period, DOI (2.5 mg/kg, i.p.) was administered in order to induce head twitches. The number of head twitches was then counted for 20 min. […]

T2 sequence (Q14831 35-915): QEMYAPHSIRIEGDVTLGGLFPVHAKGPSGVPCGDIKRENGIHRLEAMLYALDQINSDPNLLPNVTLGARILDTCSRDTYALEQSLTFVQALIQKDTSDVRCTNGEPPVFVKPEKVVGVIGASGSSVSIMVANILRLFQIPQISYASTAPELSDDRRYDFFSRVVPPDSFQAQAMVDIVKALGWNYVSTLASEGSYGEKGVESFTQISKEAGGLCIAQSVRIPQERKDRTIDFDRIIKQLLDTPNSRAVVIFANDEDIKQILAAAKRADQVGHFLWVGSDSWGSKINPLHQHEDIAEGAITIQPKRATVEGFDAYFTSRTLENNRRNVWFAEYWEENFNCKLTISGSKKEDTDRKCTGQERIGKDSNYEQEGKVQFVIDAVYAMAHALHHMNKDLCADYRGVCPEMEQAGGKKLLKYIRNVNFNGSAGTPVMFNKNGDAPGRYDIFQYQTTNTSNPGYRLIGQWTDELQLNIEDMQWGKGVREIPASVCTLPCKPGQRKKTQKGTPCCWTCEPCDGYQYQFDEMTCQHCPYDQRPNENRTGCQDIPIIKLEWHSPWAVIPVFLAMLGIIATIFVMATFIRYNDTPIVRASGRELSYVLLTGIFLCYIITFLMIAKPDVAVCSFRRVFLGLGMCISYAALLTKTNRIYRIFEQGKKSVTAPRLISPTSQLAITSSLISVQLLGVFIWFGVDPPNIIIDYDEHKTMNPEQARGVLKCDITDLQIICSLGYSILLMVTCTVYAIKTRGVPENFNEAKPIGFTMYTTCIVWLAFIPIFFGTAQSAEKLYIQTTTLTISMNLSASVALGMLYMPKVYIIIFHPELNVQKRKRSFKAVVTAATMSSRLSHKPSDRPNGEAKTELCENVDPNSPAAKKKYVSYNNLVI
Chain of Cytochrome P450 2D6 (P10635 whole entry): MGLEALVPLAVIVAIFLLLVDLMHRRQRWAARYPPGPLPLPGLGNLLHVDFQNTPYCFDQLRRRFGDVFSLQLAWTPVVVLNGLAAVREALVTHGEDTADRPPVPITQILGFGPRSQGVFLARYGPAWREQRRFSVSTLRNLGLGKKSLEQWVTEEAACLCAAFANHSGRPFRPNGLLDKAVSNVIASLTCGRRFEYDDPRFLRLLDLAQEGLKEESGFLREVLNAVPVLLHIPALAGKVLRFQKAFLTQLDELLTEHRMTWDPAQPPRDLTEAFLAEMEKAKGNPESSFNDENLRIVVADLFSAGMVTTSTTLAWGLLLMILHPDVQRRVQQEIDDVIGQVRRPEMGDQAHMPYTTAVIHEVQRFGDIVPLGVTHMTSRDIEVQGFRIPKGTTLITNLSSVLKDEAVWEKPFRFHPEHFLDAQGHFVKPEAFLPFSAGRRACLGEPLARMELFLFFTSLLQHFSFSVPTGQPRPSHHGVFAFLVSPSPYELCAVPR

| Compound | IC50 (Cytochrome P450 2B6) | Metabolic stability (microsomes, mice) [1] | microsomal CLint [1] | IC50 (mGlu7 receptor [2]) | IC50 (mGlu7 receptor [4]) | IC50 (Cytochrome P450 2D6) | Concentration in brain ([5]; 0,5 h after 10 mg/kg i.p.) | Concentration in brain ([5]; 0,25 h after 10 mg/kg i.p.) | Concentration in brain ([5]; 1 h after 10 mg/kg i.p.) | Concentration in brain ([5]; 2 h after 10 mg/kg i.p.) | AUC [5] | Cmax [5] | Tmax [5] | half-life [5] | Effect on DOI-induced head twitches, chronic (10 days) administration ([6]; 5 mg/kg) | other results |
| --- | --- | --- | --- | --- | --- | --- | --- | --- | --- | --- | --- | --- | --- | --- | --- | --- |
| CCc1nc2c(o1)CC(c1ccc(C)cc1C)CC2=O (centres unmarked) [ADX71743, 6-(2,4-Dimethylphenyl)-2-ethyl-6,7-dihydro-4(5H)-benzoxazolone] | > 10 µM | 0.01 | 500 µL/min/mg | 440 nM | 220 nM | > 10 µM | 2,09 μM | 3,38 μM | 0,79 μM | 0,09 μM | 2.27 µM·h | 3.38 µM | 15 min | 20.4 min | statistical effect | Effect on MK-801-induced reduction of duration of social interaction ([3]; 5 mg/kg i.p.): reversed the effect of MK-801; Effect on MK-801-induced reduction of number of social episodes ([3]; 5 mg/kg i.p.): reversed the effect of MK-801; Effect on MK-801-induced reduction of duration of social interaction ([3]; 15 mg/kg i.p.): reversed the effect of MK-801; Effect on MK-801-induced reduction of number of social episodes ([3]; 15 mg/kg i.p.): reversed the effect of MK-801; Effect on DOI-induced head twitches, chronic (10 days) administration ([6]; 2.5 mg/kg): statistical effect |
| COc1ccc(-c2cc3onc(-c4ccncc4)c3c(=O)n2C)cc1 [MMPIP, 6-(4-Methoxyphenyl)-5-methyl-3-(4-pyridinyl)-isoxazolo(4,5-c)pyridin-4(5H)-one] | > 10 µM | 49.78 | 38.7 µL/min/mg | 380 nM | 340 nM | > 10 µM | 5,42 μM | 3,63 μM | 2,44 μM | 1,79 μM | 8.98 µM·h | 5.42 µM | 30 min | 105 min | statistically significant effect | Effect on MK-801-induced reduction of number of social episodes ([3]; 5, 10, and 20 mg/kg i.p.): no effect; Effect on MK-801-induced reduction of time of interaction ([3]; 5, 10, and 20 mg/kg i.p.): no effect; Effect on DOI-induced head twitches, acute ([6]; 5 mg/kg i.p.): significantly reduced DOI-induced head twitches; Effect on DOI-induced head twitches, acute ([6]; 10 mg/kg i.p.): significantly reduced DOI-induced head twitches; Effect on DOI-induced head twitches, chronic (10 days) administration ([6]; 10 mg/kg): statistically significant effect; Effect on DOI-induced head twitches, acute ([6]; 15 mg/kg i.p.): significantly reduced DOI-induced head twitches |
